The target in the experiment is T1, KCNQ 2/3 channels (HEK293 cells stably expressing human KCNQ2 and KCNQ3 subunits) (Homo sapiens, UniProt O43525+O43526).
T1 construct: expressed in transfected cells; host or cells: HEK293
Kind of experiment: KCNQ2/3 channel activation, thallium flux FLIPR assay (BTC-AM dye). The note with it: for Emax: HEK293, maximum response relative to response of retigabine at 10 μM (set at 100%), read-out: Max. %; for EC50: HEK293 cells expressing human KCNQ2 and KCNQ3, FLIPR thallium flux. It is filed as cell-based. As for the experimental part:
The following example describes the assay that can be used to identify compounds that activate KCNQ 2/3 channels.
HEK293 cells stably expressing human KCNQ2 and KCNQ3 subunits were seeded in 96-well, black-walled, clear-bottomed, poly-D-lysine coated plates (BD Biosciences, Bedford, Mass.) at a density of 1×10^5 cells per well 24 hours before the assay. On the assay day, BTC-AM dye (Invitrogen, Carlsbad, Calif.) was loaded into the cells by replacing the cell culture medium with 100 μL/well of 4 μM dye in DPBS. Dye loading was allowed to proceed for 2 hours at room temperature and then cells were washed twice in 100 μL/well of assay buffer (in mM: 10 HEPES pH 7.3, 5 glucose, 140 Na-gluconate, 2.5 K-gluconate, 3.6 Ca-gluconate, 2 MgSO4, 0.1 Ouabain) to remove unloaded dye. Cells were incubated in 50 μL of assay buffer before loading onto a FLIPR system (Molecular Devices, Sunnyvale, Calif.). Various concentrations of compounds to be assayed were added to the cells in 50 μL of assay buffer and incubated for 4 minutes. The fluorescence signal was initiated by adding 100 μL of assay buffer containing 6 mM TlNO3 and 10 mM K2SO4. Fluors were excited using the 488-nm line of an argon laser and emission was filtered using a 540±30 nm bandpass filter. Fluorescent signals were recorded for 3 minutes. Responses over baseline values were plotted versus concentrations of test compounds to obtain an EC50 value. The maximum response for each test compound was determined relative to the response produced at 10 μM by retigabine. The maximum response of retigabine at 10 μM was set at 100%.

SMILES strings stand for the structures.

For `Cc1ccnc2c(-c3ccc(OC(F)(F)F)cc3)c(NC(=O)CC(C)(C)c3ccccc3)nn12` [Example 159, 3-methyl-N-{7-methyl-3-[4-(trifluoromethoxy)phenyl]pyrazolo[1,5-a]pyrimidin-2-yl}-3-phenylbutanamide], the Emax turned out to be 136% and the concentration giving a half-maximal response (EC50) (in general, the midpoint of the concentration-response curve) lay within 0.5 to 1 µM.

In the case of `CCC1(c2c(NC(=O)CC3CC4CCC3C4)nn3cccnc23)CCCCC1` (racemic) [Example 146, (±)-exo-2-bicyclo[2.2.1]hept-2-yl-N-[3-(1-ethylcyclohexyl)pyrazolo[1,5-a]pyrimidin-2-yl]acetamide], the Emax stood at 151% and the EC50 is 0.5 to 1 µM.

For `Cc1ccccc1-c1c(NC(=O)CC(C)(C)C)nn2cccnc12` [Example 141, 3,3-dimethyl-N-[3-(2-methylphenyl)pyrazolo[1,5-a]pyrimidin-2-yl]butanamide], the Emax turned out to be 6% and the concentration giving a half-maximal response (EC50) is greater than 10 µM.

With `CC(C)(C)c1c(NC(=O)CC23CC4CC(CC(C4)C2)C3)nn2cccnc12` [Example 107, 2-(adamantan-1-yl)-N-(3-tert-butylpyrazolo[1,5-a]pyrimidin-2-yl)acetamide], the Emax is 94% and the EC50 lay in the range of 0.1 to 0.5 µM.

`CC(C)(C)c1c(NC(=O)CC2(C)CCc3ccccc32)nn2cccnc12` (racemic) [Example 131, (±)-N-(3-tert-butylpyrazolo[1,5-a]pyrimidin-2-yl)-2-(1-methyl-2,3-dihydro-1H-inden-1-yl)acetamide]: the Emax was 97% and the EC50 lay within 1 to 10 µM.

Consider `Cc1ccc(-c2c(NC(=O)Cc3ccccc3)nn3cccnc23)cc1F` [Example 19, N-[3-(3-fluoro-4-methylphenyl)pyrazolo[1,5-a]pyrimidin-2-yl]-2-phenylacetamide], for which the Emax was determined as 77% and the concentration for a half-maximal effect (EC50) is 1 to 10 µM.

As for `O=C(Cc1ccncc1)Nc1nn2cccnc2c1-c1ccc(Cl)cc1` [Example 102, N-[3-(4-chlorophenyl)pyrazolo[1,5-a]pyrimidin-2-yl]-2-(pyridin-4-yl)acetamide], the Emax was found to be 23% and the EC50 was greater than 10 µM.

For `Cc1cnc2c(-c3ccccc3)c(NC(=O)CC(C)(C)C)nn2c1` [Example 92, 3,3-dimethyl-N-(6-methyl-3-phenylpyrazolo[1,5-a]pyrimidin-2-yl)butanamide], the Emax is 164% and the EC50 was in the range of 1 to 10 µM.

Take `CC(C)(C)CCC(=O)Nc1nn2cccnc2c1C(C)(C)C` [Example 170, N-(3-tert-butylpyrazolo[1,5-a]pyrimidin-2-yl)-4,4-dimethylpentanamide]: the Emax is 124% and the half-maximal effective concentration (EC50) fell in the range of 1 to 10 µM.

As for `Cc1cnc2c(C(C)(C)C)c(NC(=O)CCC3CCCCC3)nn2c1` [Example 178, N-(3-tert-butyl-6-methylpyrazolo[1,5-a]pyrimidin-2-yl)-3-cyclohexylpropanamide], the Emax is 158% and the half-maximal effective concentration (EC50) is less than 0.1 µM.

With `Cc1cnc2c(-c3ccc(F)c(C)c3)c(NC(=O)C[S+]([O-])C3CCCC3)nn2c1` (stereo not drawn) [Example 173, 2-(cyclopentylsulfinyl)-N-[3-(4-fluoro-3-methylphenyl)-6-methylpyrazolo[1,5-a]pyrimidin-2-yl]acetamide], the Emax stood at 21% and the EC50 is greater than 10 µM.

Take `O=C(CC12CC3CC(CC(C3)C1)C2)Nc1nn2cccnc2c1-c1ccc(OC(F)(F)F)cc1` [Example 142, 2-(adamantan-1-yl)-N-{3-[4-(trifluoromethoxy)phenyl]pyrazolo[1,5-a]pyrimidin-2-yl}acetamide]: the Emax was 152% and the concentration for a half-maximal effect (EC50) lay in the range of 1 to 10 µM.

For `Cc1cc(C)n2nc(NC(=O)CCC3CCCC3)c(-c3ccc(Cl)cc3)c2n1` [Example 43, N-[3-(4-chlorophenyl)-5,7-dimethylpyrazolo[1,5-a]pyrimidin-2-yl]-3-cyclopentylpropanamide], the Emax was 157% and the half-maximal effective concentration (EC50) was less than 0.1 µM.

Take `COc1cccc(CC(=O)Nc2nn3c(C)ccnc3c2-c2ccc(Cl)cc2)c1` [Example 41, N-[3-(4-chlorophenyl)-7-methylpyrazolo[1,5-a]pyrimidin-2-yl]-2-(3-methoxyphenyl)acetamide]: the Emax came out at 136% and the half-maximal effective concentration (EC50) lay in the range of 1 to 10 µM.

Turning to `O=C(CCC1CCCC1)Nc1nn2cccnc2c1-c1ccc(C(F)(F)F)c(F)c1` [Example 88, 3-cyclopentyl-N-{3-[3-fluoro-4-(trifluoromethyl)phenyl]pyrazolo[1,5-a]pyrimidin-2-yl}propanamide], the Emax is 65% and the EC50 fell in the range of 0.5 to 1 µM.

On to `Cc1cnc2c(-c3ccc(Cl)c(C)c3)c(NC(=O)CCc3ccccc3)nn2c1` [Example 44, N-[3-(4-chloro-3-methylphenyl)-6-methylpyrazolo[1,5-a]pyrimidin-2-yl]-3-phenylpropanamide], for which the Emax stood at 73% and the EC50 was 1 to 10 µM.

For `Cc1cnc2c(Cc3ccc(F)cc3)c(NC(=O)CCC3CCCCC3)nn2c1` [Example 77, 3-cyclohexyl-N-[3-(4-fluorobenzyl)-6-methylpyrazolo[1,5-a]pyrimidin-2-yl]propanamide], the Emax worked out at 133% and the concentration for a half-maximal effect (EC50) is less than 0.1 µM.

Take `Cc1ccnc2c(-c3cccc(Cl)c3)c(NC(=O)CCc3ccccc3)nn12` [Example 49, N-[3-(3-chlorophenyl)-7-methylpyrazolo[1,5-a]pyrimidin-2-yl]-3-phenylpropanamide]: the Emax is 123% and the EC50 was in the range of 1 to 10 µM.

As to `O=C(NCC1CCOCC1)Nc1nn2cccnc2c1-c1ccc(Cl)cc1` [Example 103, 1-[3-(4-chlorophenyl)pyrazolo[1,5-a]pyrimidin-2-yl]-3-(tetrahydro-2H-pyran-4-ylmethyl)urea], the Emax is 8% and the EC50 is greater than 10 µM.

Take `Cc1cnc2c(Cc3ccc(F)cc3)c(NC(=O)CC3CCCC3)nn2c1` [Example 5, 2-cyclopentyl-N-(3-(4-fluorobenzyl)-6-methylpyrazolo[1,5-a]pyrimidin-2-yl)acetamide]: the Emax was found to be 143% and the EC50 was less than 0.1 µM.

Consider `Cc1cc(C)n2nc(NC(=O)CC3CCCCC3)c(-c3cccc(F)c3)c2n1` [Example 86, 2-cyclohexyl-N-[3-(3-fluorophenyl)-5,7-dimethylpyrazolo[1,5-a]pyrimidin-2-yl]acetamide], for which the Emax came to 138% and the EC50 is less than 0.1 µM.

As for `CC(C)(C)c1c(NC(=O)CCC2CCCCC2)nn2cccnc12` [Example 132, N-(3-tert-butylpyrazolo[1,5-a]pyrimidin-2-yl)-3-cyclohexylpropanamide], the Emax amounted to 142% and the EC50 is less than 0.1 µM.

Take `Cc1cnc2c(-c3ccc(C(F)(F)F)c(F)c3)c(NC(=O)CC3CCCC3)nn2c1` [Example 87, 2-cyclopentyl-N-{3-[3-fluoro-4-(trifluoromethyl)phenyl]-6-methylpyrazolo[1,5-a]pyrimidin-2-yl}acetamide]: the Emax came out at 239% and the concentration giving a half-maximal response (EC50) lay in the range of 0.1 to 0.5 µM.

Turning to `CCC1(c2c(NC(=O)CCC3CCCC3)nn3cccnc23)CCCCC1` [Example 145, 3-cyclopentyl-N-[3-(1-ethylcyclohexyl)pyrazolo[1,5-a]pyrimidin-2-yl]propanamide], the Emax was determined as 182% and the EC50 lay in the range of 0.1 to 0.5 µM.

For `CC1(C)[C@H]2CC[C@@H](CC(=O)Nc3nn4cccnc4c3-c3ccc(OC(F)(F)F)cc3)[C@@H]1C2` [Example 4, 2-[(1S,2S,5S)-6,6-dimethylbicyclo[3.1.1]hept-2-yl]-N-{3-[4-(trifluoromethoxy)phenyl]pyrazolo[1,5-a]pyrimidin-2-yl}acetamide], the Emax was 73% and the EC50 fell in the range of 0.5 to 1 µM.

With `CC(C)(CC(=O)Nc1nn2cccnc2c1-c1cccc(F)c1)c1ccccc1` [Example 128, N-[3-(3-fluorophenyl)pyrazolo[1,5-a]pyrimidin-2-yl]-3-methyl-3-phenylbutanamide], the Emax was found to be 96% and the concentration giving a half-maximal response (EC50) lay within 1 to 10 µM.

As for `CC(C)(C)c1c(NC(=O)CC2CCCCC2)nn2cccnc12` [Example 130, N-(3-tert-butylpyrazolo[1,5-a]pyrimidin-2-yl)-2-cyclohexylacetamide], the Emax is 131% and the EC50 was in the range of 0.1 to 0.5 µM.

As to `Cc1cc(C)n2nc(NC(=O)CC3CCCCC3)c(-c3cccc(Cl)c3)c2n1` [Example 52, N-[3-(3-chlorophenyl)-5,7-dimethylpyrazolo[1,5-a]pyrimidin-2-yl]-2-cyclohexylacetamide], the Emax was 156% and the EC50 lay in the range of 0.1 to 0.5 µM.

Turning to `CC(C)(C)Cc1c(NC(=O)CCc2ccccc2)nn2cccnc12` [Example 10, N-[3-(2,2-dimethylpropyl)pyrazolo[1,5-a]pyrimidin-2-yl]-3-phenylpropanamide], the Emax came to 156% and the 50% effective concentration (EC50) lay within 1 to 10 µM.

Turning to `CC(C)(C)c1c(NC(=O)CC(C)(C)c2ccccc2)nn2cccnc12` [Example 126, N-(3-tert-butylpyrazolo[1,5-a]pyrimidin-2-yl)-3-methyl-3-phenylbutanamide], the Emax is 133% and the concentration for a half-maximal effect (EC50) lay in the range of 0.1 to 0.5 µM.
